In the supplement of paper PMC10307832:

Tests used:
Experiment in all cases: relative viability (nuclei count vs DMSO), 5 days (fraction); higher = more cells survive
EMC-BAC-2 = system: EMC-BAC-2
Summary of the method: (§1)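 One day after seeding in 1536-well plates, lung cancer cell lines were dosed by pin tool. Dosing was either single-drug or a fixed anchor-drug dose plus five library-drug doses (not always all listed) in √10 steps. After 5 days, nuclei were stained in one fix-and-stain step and counted on 4× images, and relative viability is the nuclei count of treated wells over that of vehicle wells, given as the median of duplicate plates.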

RERF-LC-KJ = system: RERF-LC-KJ
Summary of the method: as §1

NCI-H2126 = system: NCI-H2126
Summary of the method: as §1

NCI-H3122 = system: NCI-H3122
Summary of the method: as §1

EPLC-272H = system: EPLC-272H
Summary of the method: as §1

NCI-H1563 = system: NCI-H1563
Summary of the method: as §1

LOU-NH91 = system: LOU-NH91
Summary of the method: as §1

SW 1573 = system: SW 1573
Summary of the method: as §1

NCI-H1666 = system: NCI-H1666
Summary of the method: as §1

HCC-78 = system: HCC-78
Summary of the method: as §1

LXF-289 = system: LXF-289
Summary of the method: as §1

HCC-44 = system: HCC-44
Summary of the method: as §1

LCLC-103H = system: LCLC-103H
Summary of the method: as §1

HCC-366 = system: HCC-366
Summary of the method: as §1

HCC-827 = system: HCC-827
Summary of the method: as §1

NCI-H2085 = system: NCI-H2085
Summary of the method: as §1

ChaGo-K-1 = system: ChaGo-K-1
Summary of the method: as §1

NCI-H2405 = system: NCI-H2405
Summary of the method: as §1

NCI-H23 = system: NCI-H23
Summary of the method: as §1

LU99A = system: LU99A
Summary of the method: as §1

LK-2 = system: LK-2
Summary of the method: as §1

NCI-H1975 = system: NCI-H1975
Summary of the method: as §1

SK-LU-1 = system: SK-LU-1
Summary of the method: as §1

For `Clc1ccc(Nc2nnc(Cc3ccncc3)c3ccccc23)cc1` [Vatalanib] + C[C@@H](Oc1cc(-c2cnn(C3CCNCC3)c2)cnc1N)c1c(Cl)ccc(F)c1Cl [Crizotinib] (partner 1 µM), the relative viability (EMC-BAC-2; first compound 0.04 µM) was 0.703, the relative viability (EMC-BAC-2; first compound 0.1265 µM) was 0.76 and the relative viability (EMC-BAC-2; first compound 0.4 µM) was 0.75. The relative viability (EMC-BAC-2; first compound 1.265 µM) was 0.752, the relative viability (EMC-BAC-2; first compound 4 µM) was 0.742 and the relative viability (RERF-LC-KJ; first compound 0.04 µM) was 0.881. It also gave a relative viability (RERF-LC-KJ; first compound 0.1265 µM) of 0.766, a relative viability (RERF-LC-KJ; first compound 0.4 µM) of 0.88 and a relative viability (RERF-LC-KJ; first compound 1.265 µM) of 0.792. The relative viability (RERF-LC-KJ; first compound 4 µM) was 0.799, the relative viability (NCI-H2126; first compound 0.04 µM) was 0.977 and the relative viability (NCI-H2126; first compound 0.1265 µM) was 1.03. It also gave a relative viability (NCI-H2126; first compound 0.4 µM) of 1.05, a relative viability (NCI-H2126; first compound 1.265 µM) of 1.07 and a relative viability (NCI-H2126; first compound 4 µM) of 0.992. For the same compound, the relative viability (NCI-H3122; first compound 0.04 µM) was 0.25, the relative viability (NCI-H3122; first compound 0.1265 µM) was 0.274 and the relative viability (NCI-H3122; first compound 0.4 µM) was 0.269. The relative viability (NCI-H3122; first compound 1.265 µM) was 0.249, the relative viability (NCI-H3122; first compound 4 µM) was 0.288 and the relative viability (EPLC-272H; first compound 0.04 µM) was 0.836. The relative viability (EPLC-272H; first compound 0.1265 µM) was 0.779, the relative viability (EPLC-272H; first compound 0.4 µM) was 0.965 and the relative viability (EPLC-272H; first compound 1.265 µM) was 0.919. The relative viability (EPLC-272H; first compound 4 µM) was 0.955, the relative viability (NCI-H1563; first compound 0.04 µM) was 0.848 and the relative viability (NCI-H1563; first compound 0.1265 µM) was 0.754. The relative viability (NCI-H1563; first compound 0.4 µM) was 0.961, the relative viability (NCI-H1563; first compound 1.265 µM) was 0.818 and the relative viability (NCI-H1563; first compound 4 µM) was 0.859. For the same compound, the relative viability (LOU-NH91; first compound 0.04 µM) was 0.728, the relative viability (LOU-NH91; first compound 0.1265 µM) was 0.708 and the relative viability (LOU-NH91; first compound 0.4 µM) was 0.674. For the same compound, the relative viability (LOU-NH91; first compound 1.265 µM) was 0.718, the relative viability (LOU-NH91; first compound 4 µM) was 0.726 and the relative viability (SW 1573; first compound 0.04 µM) was 0.918. The relative viability (SW 1573; first compound 0.1265 µM) was 0.721, the relative viability (SW 1573; first compound 0.4 µM) was 0.942 and the relative viability (SW 1573; first compound 1.265 µM) was 0.627. For the same compound, the relative viability (SW 1573; first compound 4 µM) was 0.817, the relative viability (NCI-H1666; first compound 0.04 µM) was 0.968 and the relative viability (NCI-H1666; first compound 0.1265 µM) was 0.985. It also gave a relative viability (NCI-H1666; first compound 0.4 µM) of 1.06, a relative viability (NCI-H1666; first compound 1.265 µM) of 0.889 and a relative viability (NCI-H1666; first compound 4 µM) of 0.742. It also gave a relative viability (HCC-78; first compound 0.04 µM) of 0.318, a relative viability (HCC-78; first compound 0.1265 µM) of 0.324 and a relative viability (HCC-78; first compound 0.4 µM) of 0.35. The relative viability (HCC-78; first compound 4 µM) was 0.306, the relative viability (LXF-289; first compound 0.04 µM) was 0.665 and the relative viability (LXF-289; first compound 0.1265 µM) was 0.743. For the same compound, the relative viability (LXF-289; first compound 0.4 µM) was 0.807, the relative viability (LXF-289; first compound 1.265 µM) was 0.717 and the relative viability (LXF-289; first compound 4 µM) was 0.78. It also gave a relative viability (HCC-44; first compound 0.04 µM) of 0.836, a relative viability (HCC-44; first compound 0.1265 µM) of 0.842 and a relative viability (HCC-44; first compound 0.4 µM) of 0.804. The relative viability (HCC-44; first compound 1.265 µM) was 0.735, the relative viability (HCC-44; first compound 4 µM) was 0.701 and the relative viability (LCLC-103H; first compound 0.04 µM) was 1.04. It also gave a relative viability (LCLC-103H; first compound 0.1265 µM) of 1.04, a relative viability (LCLC-103H; first compound 0.4 µM) of 1.15 and a relative viability (LCLC-103H; first compound 1.265 µM) of 0.999. The relative viability (LCLC-103H; first compound 4 µM) was 1.11, the relative viability (HCC-366; first compound 0.04 µM) was 0.545 and the relative viability (HCC-366; first compound 0.1265 µM) was 0.383. It also gave a relative viability (HCC-366; first compound 0.4 µM) of 0.592, a relative viability (HCC-366; first compound 1.265 µM) of 0.487 and a relative viability (HCC-366; first compound 4 µM) of 0.35. It also gave a relative viability (HCC-827; first compound 0.04 µM) of 0.845, a relative viability (HCC-827; first compound 0.1265 µM) of 0.936 and a relative viability (HCC-827; first compound 0.4 µM) of 0.943. The relative viability (HCC-827; first compound 1.265 µM) was 0.894, the relative viability (HCC-827; first compound 4 µM) was 0.853 and the relative viability (NCI-H2085; first compound 0.04 µM) was 0.754. For the same compound, the relative viability (NCI-H2085; first compound 0.1265 µM) was 0.779, the relative viability (NCI-H2085; first compound 0.4 µM) was 1.04 and the relative viability (NCI-H2085; first compound 1.265 µM) was 0.787. The relative viability (NCI-H2085; first compound 4 µM) was 0.888, the relative viability (ChaGo-K-1; first compound 0.04 µM) was 1.18 and the relative viability (ChaGo-K-1; first compound 0.1265 µM) was 1.14. For the same compound, the relative viability (ChaGo-K-1; first compound 1.265 µM) was 1.1, the relative viability (ChaGo-K-1; first compound 4 µM) was 1.09 and the relative viability (NCI-H2405; first compound 0.04 µM) was 0.896. It also gave a relative viability (NCI-H2405; first compound 0.1265 µM) of 0.79, a relative viability (NCI-H2405; first compound 0.4 µM) of 0.932 and a relative viability (NCI-H2405; first compound 1.265 µM) of 0.816. For the same compound, the relative viability (NCI-H2405; first compound 4 µM) was 0.82, the relative viability (NCI-H23; first compound 0.04 µM) was 0.505 and the relative viability (NCI-H23; first compound 0.1265 µM) was 0.49. It also gave a relative viability (NCI-H23; first compound 0.4 µM) of 0.491, a relative viability (NCI-H23; first compound 1.265 µM) of 0.622 and a relative viability (NCI-H23; first compound 4 µM) of 0.564. For the same compound, the relative viability (LU99A; first compound 0.04 µM) was 0.597, the relative viability (LU99A; first compound 0.1265 µM) was 0.524 and the relative viability (LU99A; first compound 0.4 µM) was 0.63. For the same compound, the relative viability (LU99A; first compound 1.265 µM) was 0.528, the relative viability (LU99A; first compound 4 µM) was 0.513 and the relative viability (LK-2; first compound 0.04 µM) was 0.243. For the same compound, the relative viability (LK-2; first compound 0.1265 µM) was 0.232, the relative viability (LK-2; first compound 1.265 µM) was 0.252 and the relative viability (LK-2; first compound 4 µM) was 0.233. It also gave a relative viability (NCI-H1975; first compound 0.04 µM) of 0.946, a relative viability (NCI-H1975; first compound 0.1265 µM) of 0.856 and a relative viability (NCI-H1975; first compound 0.4 µM) of 0.959. It also gave a relative viability (NCI-H1975; first compound 1.265 µM) of 0.845, a relative viability (NCI-H1975; first compound 4 µM) of 0.821 and a relative viability (SK-LU-1; first compound 0.04 µM) of 0.923. It also gave a relative viability (SK-LU-1; first compound 0.1265 µM) of 0.898, a relative viability (SK-LU-1; first compound 0.4 µM) of 1.02 and a relative viability (SK-LU-1; first compound 1.265 µM) of 1.06. The relative viability (SK-LU-1; first compound 4 µM) was 0.696.
